Results: patent US11034726B2, “Gene expression inhibitors” (PIVARIS BIOSCIENCE GMBH, priority 2017, dated 2021)
Ends that are not written are not given here. Peptide text beside a SMILES is read from it.

How the values were obtained:
[1] = system: baculovirus encoding luciferase under control of the CMV promoter; experiment: Baculovirus-mediated luciferase gene expression in HEK293 cells; assay type: cell-based; conditions: for baculovirus-mediated luciferase expression (in words): HEK293 pretreated for 10 minutes
Procedure: A baculovirus was generated with the luciferase coding region under control of the CMV promoter integrated in its viral genome. The baculovirus was applied to HEK293 cells pretreated for 10 minutes with DMSO or increasing concentrations of peptide I24, TAT and the fusion peptide TAT-I24. Luciferase expression is reduced in cells treated with cell-permeable fusion peptide TAT-I24 in a dose-dependent manner (FIG. 7a). Baculovirus-infected cells incubated with DMSO, TAT-I24 or TAT were stimulated with TNF-α and total RNA isolated from cells. After treatment of the RNA with DNAse I, reverse transcription was performed. Luciferase and IL-8 mRNA were analysed by real-time PCR.

[2] = system: adenovirus encoding luciferase and GFP; experiment: Adenovirus gene expression and replication in HEK293 cells; assay type: cell-based
Procedure: HEK293 cells were treated with increasing concentrations of the peptides I24, TAT-I24 or TAT alone and incubated with adenovirus encoding luciferase and green fluorescence protein (GFP) under control of the CMV promoter. […] HEK293 cells were treated with vehicle control, the peptide I24, TAT-I24 or TAT alone (20 μM) and adenovirus particles encoding luciferase and GFP. After 72 hrs, RNA was isolated and luciferase and GFP as well as adenovirus hexon transcript levels analysed by real-time PCR and normalized to GAPDH. […] DNA was isolated from supernatants and adenovirus hexon DNA quantified using real-time PCR (FIG. 8c).

[3] = system: vaccinia virus; assay type: cell-based; conditions: for rpo22 mRNA levels (in words): normalized to GAPDH
[4] = system: lentivirus containing luciferase under control of the CMV promoter; experiment: Lentivirus luciferase gene expression in HEK293 cells; assay type: cell-based; conditions: 20 μM, 48 hrs
Procedure: HEK293 cells were incubated with peptide I24, TAT-tagged peptide I24 (TAT-I24), or TAT followed by addition of lentivirus containing luciferase under control of the CMV promoter for 48 hrs.

[5] = system: herpes simplex virus; experiment: Herpes simplex virus plaque-formation assay; assay type: cell-based
Excerpt: Cells were infected with herpes simplex virus and replication of virus determined by a plaque-formation assay (see examples above). Replication of herpes simplex virus was inhibited by TAT-I24 in a dose-dependent manner.

[6] = system: plasmid-encoded luciferase in HEK293 cells; experiment: Transient transfection of luciferase expression plasmid (CMV promoter) with peptide, luciferase in cell lysates; conditions: for luciferase % of DMSO con-: peptide 2 μM, 24 hrs post-transfection, HEK293, relative to DMSO control; for inhibition of luciferase production (in words): peptide transfected with CMV-luciferase plasmid, HEK293, 24 hrs; for IC50: read-out: IC50 inhibition of plasmid-encoded luciferase levels, transfected together with the plasmid-DNA
[7] = system: plasmid-encoded green fluorescence protein (GFP) in HEK293 cells; experiment: Transfection of GFP expression plasmid, Western blot and GFP-positive cells; assay type: cell-based, human; conditions: 2 μM
[8] = system: luciferase under control of the truncated interleukin-8 (IL-8) promoter in HEK293 cells; experiment: Transfection of luciferase under truncated IL-8 promoter, TNF-α stimulation; assay type: cell-based, human; conditions: 24 hrs post-transfection, TNF-α 6 hrs after transfection
Excerpt: (§1) HEK293 cells were transiently transfected with a construct containing the luciferase coding region under control of the truncated interleukin-8 (IL-8) promoter and peptide I24 and stimulated with tumor necrosis factor (TNF)-α 6 hrs after transfection and analysed 24 hrs post-transfection for expression of luciferase in cell lysates and released IL-8 in the supernatants by ELISA.

[9] = system: endogenous interleukin-8 in HEK293 cells; experiment: Endogenous IL-8 release by ELISA in transfected, TNF-α-stimulated cells; assay type: cell-based, human; conditions: 24 hrs post-transfection
Excerpt: as §1

[10] = system: plasmid-encoded luciferase in COS-7 cells; experiment: Transfection of CMV-luciferase plasmid in COS-7 cells, luciferase protein and mRNA; assay type: cell-based, African green monkey
Procedure: COS-7 African green monkey kidney cells were transfected with an expression plasmid driving luciferase under control of the CMV promoter and luciferase determined in cell lysates. For analysis of expression of luciferase mRNA, total RNA was isolated, treated with DNAse I and subjected to reverse transcription using random hexamers. Real-time PCR was performed with hydrolysis probes detecting luciferase and normalized to 18S rRNA transcript levels.
(§2) The cell lines African Green Monkey kidney cells CV-1 and COS-7, as well as the human breast cancer cell line MCF-7 and the human colon cancer cell lines HT-29 were transiently transfected with a plasmid containing luciferase under control of a CMV promoter and different concentrations of peptide I24.

[11] = system: plasmid-encoded luciferase and neomycin resistance gene mRNA in HEK293 cells; experiment: Real-time PCR of luciferase (CMV promoter) and neomycin resistance gene (early SV40 promoter) mRNA from one plasmid; assay type: cell-based, human; conditions: increasing concentration, 24 hrs, normalized against GAPDH
Procedure: HEK293 cells were transiently transfected in the presence of increasing concentrations of peptide I24 with an expression plasmid containing luciferase under control of the CMV promoter and the neomycin resistance gene under control of the early SV40 promoter. After 24 hrs, total RNA was isolated from the cells, digested with DNAse I to remove plasmid-DNA and subjected to reverse transcription. Quantitative real-time PCR analysis of luciferase and neomycin mRNA was performed using hydrolysis probes and normalized against GAPDH transcripts.

[12] = system: plasmid-encoded luciferase in CV-1 cells; experiment: Transfection of CMV-luciferase plasmid in CV-1 cells; assay type: cell-based, African Green Monkey; conditions: CV-1, different concentrations
Excerpt: as §2, with “[…].” for “I24.”

[13] = system: plasmid-encoded luciferase in MCF-7 cells; experiment: Transfection of CMV-luciferase plasmid in MCF-7 cells; assay type: cell-based, human; conditions: MCF-7, different concentrations
Excerpt: as §2, with “[…].” for “I24.”

[14] = system: plasmid-encoded luciferase in HT-29 cells; experiment: Transfection of CMV-luciferase plasmid in HT-29 cells; assay type: cell-based, human; conditions: HT-29, different concentrations
Excerpt: as §2, with “[…].” for “I24.”

[15] = system: Escherichia coli; experiment: Colony formation of E. coli transformed with antibiotic resistance plasmid and peptide; assay type: cell-based
Excerpt: Competent Escherichia coli cells were transformed with a plasmid containing an ampicillin resistance gene or a kanamycin resistance gene and either DMSO as vehicle control or I24. On the next day, number of colonies was reduced in the presence of peptide I24 compared to the vehicle control (FIG. 11).

[16] = system: Escherichia coli; experiment: Plasmid copy numbers and β-lactamase mRNA in transformed E. coli by real-time PCR; assay type: cell-based; conditions: normalized to E. coli single-copy gene
Procedure: Competent Escherichia coli cells were transformed with a plasmid containing an ampicillin resistance gene and peptide I24. After indicated time-points, total plasmid numbers and β-lactamase mRNA levels were determined by real-time PCR normalized to an E. coli single-copy gene.

[17] = TNF-α stimulated, real-time PCR

CC(C)C[C@H](NC(=O)[C@H](CS)NC(=O)[C@H](CCC(N)=O)NC(=O)[C@@H]1CCCN1C(=O)[C@@H]1CCCN1C(=O)[C@H](CCCNC(=N)N)NC(=O)[C@H](CCCNC(=N)N)NC(=O)[C@H](CCCNC(=N)N)NC(=O)[C@H](CCC(N)=O)NC(=O)[C@H](CCCNC(=N)N)NC(=O)[C@H](CCCNC(=N)N)NC(=O)[C@H](CCCCN)NC(=O)[C@H](CCCCN)NC(=O)[C@H](CCCNC(=N)N)NC(=O)CN)C(=O)N[C@@H](C)C(=O)N[C@@H](Cc1ccccc1)C(=O)N[C@@H](Cc1ccc(O)cc1)C(=O)N[C@@H](C)C(=O)N[C@@H](CS)C(=O)N[C@@H](Cc1ccccc1)C(=O)N[C@@H](CS)C(=O)O [TAT-I24] (H-GRKKRRQRRRPPQCLAFYACFC-OH; N-terminus and C-terminus assumed)
baculovirus-mediated luciferase expression (in words) [1]: reduced | IL-8 mRNA levels (cellular gene) [1, 17]: remained unaffected | luciferase mRNA (baculovirus-encoded) [1, 17]: down-regulated | luciferase, GFP and adenovirus hexon transcript levels ([2]; 20 μM, 72 hrs, normalized to GAPDH): inhibition of all three adenovirus-encoded genes | cell detachment of virus-infected HEK293 cells ([2]; 96 hrs after infection, crystal violet staining): inhibition of cell detachment | IC50 ([2]; HEK293, read-out: IC50 luciferase protein levels, adenovirus): 6000 nM | adenovirus particles released to supernatants (hexon DNA) ([2]; real-time PCR of supernatant DNA): inhibits formation and release of adenovirus particles to supernatants | inhibition of virus replication, vaccinia virus ([3]; 20 μM): > 90% | reduction of amount of viral DNA in the supernatants ([3]; 20 μM, 24 hrs after infection): > 90% | reduction of number of plaque forming units (PFU) in the supernatants ([3]; 20 μM, plaque assay using BSC-40 cells): > 90% | rpo22 mRNA levels (in words) ([3]; 24 hrs after infection): dose-dependently inhibited | reduction in luciferase levels, lentivirus [4]: 75% | replication of herpes simplex virus [5]: inhibited | luciferase % of DMSO con- [6]: 1.8% | inhibition of luciferase production (in words) [6]: more potent inhibition of luciferase expression | IC50 [6]: 60 nM

CAAFYACFC [I24 M11]
luciferase % of DMSO con- [6]: 32.2%

CLAFRACFC [I24 M27]
luciferase % of DMSO con- [6]: 110.9%

CLAFYAC [I24 M2]
luciferase % of DMSO con- [6]: 110.1%

CLAFYACFAC [I24 M5]
luciferase % of DMSO con- [6]: 10.6%

CLAFYACFC (cysteine pairing not given here) [I24]
GFP production by Western blot [7]: reduced | number of GFP-positive cells [7]: reduced | TNF-α-induced luciferase expression (IL-8 promoter) [8]: reduced TNF-α-induced luciferase expression | release of IL-8 (ELISA) [9]: not affected | inhibition of the reporter gene luciferase ([10]; COS-7, different concentrations): Inhibition of the reporter gene luciferase was observed | luciferase protein levels ([10]; COS-7, different incubation times): downregulated | luciferase mRNA levels ([10]; COS-7, normalized to 18S rRNA, different incubation times): downregulated | reduction of luciferase transcripts (CMV promoter) [11]: 87% | reduction of neomycin mRNA levels (early SV40 promoter) [11]: about 50% | inhibition of the reporter gene luciferase [12]: Inhibition of the reporter gene luciferase was observed | inhibition of the reporter gene luciferase [13]: Inhibition of the reporter gene luciferase was observed | inhibition of the reporter gene luciferase [14]: Inhibition of the reporter gene luciferase was observed | baculovirus-mediated luciferase expression (in words) [1]: only weakly active | colony formation, peptide applied after transformation ([15]; applied after transformation is completed): inactive | number of colonies ([15]; peptide applied simultaneously with plasmid (ampicillin or kanamycin resistance gene)): reduced | plasmid copy numbers ([16]; 4 and 6 hrs after transformation): downregulated | β-lactamase mRNA levels [16]: downregulated | inhibition of reporter gene expression ([6]; 2 μM): approximately 90% | inhibition of reporter gene expression ([6]; 20 μM): 90% | luciferase % of DMSO con- [6]: 12.2% | inhibition of luciferase production (in words) [6]: dose-dependent inhibition of luciferase production

CLAFYACFCGGGCLAFYACFC [I24 dimer]
luciferase % of DMSO con- [6]: 3.8% | IC50 [6]: 90 nM

CLAFYACFWC [I24 M20]
luciferase % of DMSO con- [6]: 5.6%

CLAFYACLWC [I24 M22]
luciferase % of DMSO con- [6]: 6.8%

CLAFYACRC [I24 M30]
luciferase % of DMSO con- [6]: 116.5%

CLAFYARFC [I24 M29]
luciferase % of DMSO con- [6]: 56.3%

CLAFYCFAC [I24 M14]
luciferase % of DMSO con- [6]: 63.2%

CLAFYCFC [I24 M13]
luciferase % of DMSO con- [6]: 64.9%

CLAFYRCFC [I24 M28]
luciferase % of DMSO con- [6]: 93.4%

CLARYACFC [I24 M26]
luciferase % of DMSO con- [6]: 128.6%

CLAYFCFC [I24 M16]
luciferase % of DMSO con- [6]: 68.7%

CLLYFCFC [I24 M17]
luciferase % of DMSO con- [6]: 16.7%

CLVFYACFC [I24 M12]
luciferase % of DMSO con- [6]: 11.8%

FYACFAC [I24 M10]
luciferase % of DMSO con- [6]: 104.2%

FYACFC [I24 M9]
luciferase % of DMSO con- [6]: 103.6%

FYCFAC [I24_M19]
luciferase % of DMSO con- [6]: 118.6%

FYCFC [I24 M18]
luciferase % of DMSO con- [6]: 107.8%

GRKKRRQRRRPPQ [TAT, reference compound]
rpo22 mRNA levels (in words) ([3]; 24 hrs after infection): no inhibition | inhibition of luciferase production (in words) [6]: inactive

SAFYACFAC [I24 M7]
luciferase % of DMSO con- [6]: 75.9%

SLAFYACFAC [I24 M6]
luciferase % of DMSO con- [6]: 41.9%

SLAFYASFS [I24 M4]
luciferase % of DMSO con- [6]: 100.5%

SVFYACFAC [I24_M8]
activity in the cellular transfection assay (in words) ([6]; 2 μM): no inhibitory effect | luciferase % of DMSO con- [6]: 103.7%

SVFYACFC [I24 M31]
luciferase % of DMSO con- [6]: 135.5%

WSEQCFTCWW [reference compound]
activity in the cellular transfection assay (in words) ([6]; 2 μM): no inhibitory effect | luciferase % of DMSO con- [6]: 106.2%
